Where no end group is shown, it is not given here.
Assays:
[1] = biological target: T1, human Neuropeptide Y receptor type 2 (Homo sapiens, UniProt P49146); assay: melanophore assay, potency at the human Neuropeptide Y receptor type 2; format: cell-based; settings: read-out: hNPY Y2 pEC50 (converted)
T1 construct: expressed in transfected cells; host or cells: melanophores; own knowledge: in the cited Jayawickreme protocol these are Xenopus laevis melanophores transfected with the receptor
T1 sequence (P49146 1-381): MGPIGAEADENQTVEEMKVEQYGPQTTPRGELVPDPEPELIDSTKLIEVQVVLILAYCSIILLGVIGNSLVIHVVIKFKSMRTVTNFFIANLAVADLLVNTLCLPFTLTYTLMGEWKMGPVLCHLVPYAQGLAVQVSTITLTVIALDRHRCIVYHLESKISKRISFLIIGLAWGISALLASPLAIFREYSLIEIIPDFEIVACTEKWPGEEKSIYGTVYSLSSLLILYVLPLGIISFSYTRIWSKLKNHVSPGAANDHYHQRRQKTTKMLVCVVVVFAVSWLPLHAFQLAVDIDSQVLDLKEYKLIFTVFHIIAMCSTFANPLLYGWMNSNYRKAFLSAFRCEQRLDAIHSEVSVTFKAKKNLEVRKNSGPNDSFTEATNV

[2] = cumulative food intake, lean mice (Model A), BioDaQ system; format: in vivo; settings: lean C57BL/6 mice, 1 mg/kg subcutaneously, cumulative food intake after 6 h, relative to vehicle controls
Description: Cumulative food intake after 6 h was determined for the PYY analogs in either lean (Model A) or diet-induced obese (DIO) (Model B) C57BL/6 mice in a BioDaQ system for continuous monitoring of food intake (Research Diets Inc., New Brunswick, N.J.). […] Mice were placed singly into the BioDaQ cages and acclimatized for a minimum of 6 days and were allowed ad libitum access to food and water. Approximately 1 hour prior to lights-out, animals were dosed subcutaneously with either vehicle (20 mM Acetate buffer, pH 4.9 or 20% DMSO in water) or analogs dissolved in vehicle (1 mg/kg) (8 animals per group). Once all animals have been dosed, feeder gates were opened providing ad-libitum access to food. Continuous food intake was monitored and collected for 15 hours. […] P-values<0.05 were considered to indicate a significant difference between treatment groups.

Row | Molecule | EC50 [1] [nM] | % change in food intake vs vehicle, model A [2] [%]
1 | PEPEHPGCDASPEDQNKYHASLRKYLNWVTRQRY-NH2 [Peptide 10] | – | -21
2 | H-PQPESPEGNASPEDWACYHAAVRHYVNLITRQRY-NH2 [Peptide 18] | – | -17
3 | PKPVAPGCDASPAELNRQYSDLRNYWNLVTRQRY-NH2 [Peptide 15] | 1.26 | -17
4 | CC(C)C[C@H](NC(=O)[C@H](CO)NC(=O)[C@H](C)NC(=O)[C@H](Cc1ccc(O)cc1)NC(=O)[C@H](Cc1ccc(O)cc1)NC(=O)[C@H](CCCNC(=N)N)NC(=O)[C@H](CC(N)=O)NC(=O)[C@H](CC(C)C)NC(=O)[C@H](CCC(=O)O)NC(=O)[C@H](CCC(=O)O)NC(=O)[C@@H]1CCCN1C(=O)[C@H](CO)NC(=O)[C@H](C)NC(=O)[C@H](CC(=O)O)NC(=O)[C@H](CCCCN)NC(=O)CNC(=O)[C@@H]1CCCN1C(=O)[C@H](C)NC(=O)[C@H](CCC(=O)O)NC(=O)[C@@H]1CCCN1C(=O)[C@H](CCCCN)NC(=O)[C@@H]1CCCN1)C(=O)N[C@@H](CCCNC(=N)N)C(=O)N[C@@H](CCCCN)C(=O)N[C@@H](Cc1ccc(O)cc1)C(=O)N[C@@H](CC(C)C)C(=O)N[C@@H](CC(N)=O)C(=O)N[C@@H](Cc1c[nH]c2ccccc12)C(=O)N[C@H](C(=O)N[C@H](C(=O)N[C@@H](CCCNC(=N)N)C(=O)N[C@@H](CCC(N)=O)C(=O)N[C@@H](CCCNC(=N)N)C(=O)N[C@@H](Cc1ccc(O)cc1)C(N)=O)[C@@H](C)O)C(C)C [Example 31] | 0.158 | −59
5 | CC(C)C[C@H](NC(=O)[C@H](CC(=O)O)NC(=O)[C@H](C)NC(=O)[C@H](Cc1ccc(O)cc1)NC(=O)[C@H](Cc1ccc(O)cc1)NC(=O)[C@H](CCCNC(=N)N)NC(=O)[C@H](CC(N)=O)NC(=O)[C@H](Cc1c[nH]c2ccccc12)NC(=O)[C@H](CCC(=O)O)NC(=O)[C@H](CCC(=O)O)NC(=O)[C@@H]1CCCN1C(=O)[C@H](CO)NC(=O)[C@H](C)NC(=O)[C@H](CC(=O)O)NC(=O)[C@H](CCCCN)NC(=O)CNC(=O)[C@@H]1CCCN1C(=O)[C@H](C)NC(=O)[C@H](CCC(=O)O)NC(=O)[C@@H]1CCCN1C(=O)[C@H](CCCCN)NC(=O)[C@@H]1CCCN1)C(=O)N[C@@H](CCCNC(=N)N)C(=O)N[C@@H](CCCCN)C(=O)N[C@@H](Cc1ccc(O)cc1)C(=O)N[C@@H](CC(C)C)C(=O)N[C@@H](CC(N)=O)C(=O)N[C@@H](Cc1c[nH]c2ccccc12)C(=O)N[C@H](C(=O)N[C@H](C(=O)N[C@@H](CCCNC(=N)N)C(=O)N[C@@H](CCC(N)=O)C(=O)N[C@@H](CCCNC(=N)N)C(=O)N[C@@H](Cc1ccc(O)cc1)C(N)=O)[C@@H](C)O)C(C)C [Example 8] | 0.02 | −74
6 | CC(C)C[C@H](NC(=O)[C@H](CC(=O)O)NC(=O)[C@H](C)NC(=O)[C@H](Cc1ccc(O)cc1)NC(=O)[C@H](Cc1ccc(O)cc1)NC(=O)[C@H](CCCNC(=N)N)NC(=O)[C@H](CC(N)=O)NC(=O)[C@H](Cc1c[nH]c2ccccc12)NC(=O)[C@H](CCC(=O)O)NC(=O)[C@H](CCC(=O)O)NC(=O)[C@@H]1CCCN1C(=O)[C@H](CO)NC(=O)[C@H](C)NC(=O)[C@H](CC(=O)O)NC(=O)[C@H](CCCCN)NC(=O)CNC(=O)[C@@H]1CCCN1C(=O)[C@H](C)NC(=O)[C@H](CCC(=O)O)NC(=O)[C@@H]1CCCN1C(=O)[C@H](CCCCN)NC(=O)[C@@H]1CCCN1)C(=O)N[C@@H](CCCNC(=N)N)C(=O)N[C@@H](CCCCN)C(=O)N[C@@H](Cc1ccc(O)cc1)C(=O)N[C@@H](CC(C)C)C(=O)N[C@@H](CC(N)=O)C(=O)N[C@@H](Cc1c[nH]c2ccccc12)C(=O)N[C@@H](CC(C)C)C(=O)N[C@H](C(=O)N[C@@H](CCCNC(=N)N)C(=O)N[C@@H](CCC(N)=O)C(=O)N[C@@H](CCCNC(=N)N)C(=O)N[C@@H](Cc1ccc(O)cc1)C(N)=O)[C@@H](C)O [Example 4] | – | −83

Further lines, with some results ahead:

Row | EC50 [1] [nM] | Molecule | % change in food intake vs vehicle, model A [2] [%]
7 | 12.6 | H-PKPEAPGCDASPEEWNRYYASLRKYLNWVTRQNY-NH2 [Peptide 1] | 5
8 | 2.51 | H-IKPEAPLSKQLEEEAVRYYASLRHYLNLVTRQRY-NH2 [Peptide 2] | -12
9 | 6.31 | PKPEAPGCDASPEEWNRYYASLRKYLNWVTRQHY-NH2 [Peptide 14] | 24
10 | 0.0794 | CC(C)C[C@H](NC(=O)[C@H](CO)NC(=O)[C@H](C)NC(=O)[C@H](Cc1ccc(O)cc1)NC(=O)[C@H](Cc1ccc(O)cc1)NC(=O)[C@H](CCCNC(=N)N)NC(=O)[C@H](CC(N)=O)NC(=O)[C@H](Cc1c[nH]c2ccccc12)NC(=O)[C@H](CCC(=O)O)NC(=O)[C@H](CCC(=O)O)NC(=O)[C@@H]1CCCN1C(=O)[C@H](CO)NC(=O)[C@H](C)NC(=O)[C@H](CC(=O)O)NC(=O)[C@H](CCCCN)NC(=O)CNC(=O)[C@@H]1CCCN1C(=O)[C@H](C)NC(=O)[C@H](CCC(=O)O)NC(=O)[C@@H]1CCCN1C(=O)[C@H](CCCCN)NC(=O)[C@@H]1CCCN1)C(=O)N[C@@H](CCCNC(=N)N)C(=O)N[C@@H](CCCCN)C(=O)N[C@@H](Cc1ccc(O)cc1)C(=O)N[C@@H](CC(C)C)C(=O)N[C@@H](CC(N)=O)C(=O)N[C@@H](Cc1c[nH]c2ccccc12)C(=O)N[C@@H](CC(C)C)C(=O)N[C@H](C(=O)N[C@@H](CCCNC(=N)N)C(=O)N[C@@H](CCC(N)=O)C(=O)N[C@@H](CCCNC(=N)N)C(=O)N[C@@H](Cc1ccc(O)cc1)C(N)=O)[C@@H](C)O [Example 6] | −88
11 | 0.158 | CC(C)C[C@H](NC(=O)[C@H](CO)NC(=O)[C@H](C)NC(=O)[C@H](Cc1ccc(O)cc1)NC(=O)[C@H](Cc1ccc(O)cc1)NC(=O)[C@H](CCCNC(=N)N)NC(=O)[C@H](CC(N)=O)NC(=O)[C@H](CC(C)C)NC(=O)[C@H](CCC(=O)O)NC(=O)[C@H](CCC(=O)O)NC(=O)[C@@H]1CCCN1C(=O)[C@H](CO)NC(=O)[C@H](C)NC(=O)[C@H](CC(=O)O)NC(=O)[C@H](CCCCN)NC(=O)CNC(=O)[C@@H]1CCCN1C(=O)[C@H](C)NC(=O)[C@H](CCC(=O)O)NC(=O)[C@@H]1CCCN1C(=O)[C@H](CCCCN)NC(=O)[C@@H]1CCCN1)C(=O)N[C@@H](CCCNC(=N)N)C(=O)N[C@@H](CCCCN)C(=O)N[C@@H](Cc1ccc(O)cc1)C(=O)N[C@@H](CC(C)C)C(=O)N[C@@H](CC(N)=O)C(=O)N[C@@H](Cc1c[nH]c2ccccc12)C(=O)N[C@@H](CC(C)C)C(=O)N[C@H](C(=O)N[C@@H](CCCNC(=N)N)C(=O)N[C@@H](CCC(N)=O)C(=O)N[C@@H](CCCNC(=N)N)C(=O)N[C@@H](Cc1ccc(O)cc1)C(N)=O)[C@@H](C)O [Example 2] | −50
12 | 2 | H-PKPEAPLSKQLEEEAVRYYASLRHYLNLVTRQRY-NH2 [Peptide 21] | -2
13 | 0.631 | H-PKPEAPGEDASPKEWNRYYASLRKYLNWVTRQRY-NH2 [Peptide 3] | -30
